# According to patent US20050249675A1, “Mucin synthesis inhibitors” (priority 2003, published 2005):
# Read-outs that look alike come from different tables or passages of the source.
# Tests used:
# [1] = test system: MUC5A/C secretion in hCLCA1 expressing H292 cells; assay: MUC5A/C secretion by ELLA in hCLCA1 expressing H292 cells; format: cell-based, human; design: key to ELLA: (+) = inhibition; (−) = no inhibition
# activated Caco2 cells [2] = details: Caco-2
# activated Caco2 cells [3] = assay: PAS staining for mucin in activated Caco2 cells
# H292 clone 15 cells [4] = assay: Alamar Blue cytotoxicity; details: H292 clone 15 cells; 48 hours; average of 3 experiments
# H292 clone 15 cells [5] = assay: ELLA for MUC5AC, H292 clone 15 cells (Example 11); format: cell-based, human; details: Homo sapiens, NCI-H292; MUC5AC in conditioned media; 48 hours; average of 3 experiments
# Method: ELLA (Enzyme-Linked Lectin Assay) was used to determine the inhibitory effect of compounds on mucus production by H292 clone 15 cells. H292 clone 15 cells, a subclone from human pulmonary mucoepidermoid carcinoma cells overexpressing hCLCA1, were grown to confluent, followed by incubation with increasing concentrations of compounds for 48 hours. Conditioned media were collected and MUC5AC (the major secretory mucin in lungs) content was determined by ELLA measurement as described below. 96 well microtiter plates were coated with a mouse monoclonal antibody against human MUC5AC (1-13M1, NeoMarkers), then incubated with test conditioned media. Bound MUC5AC was detected by horseradish peroxidase-conjugated soybean lectin that has a high affinity towards highly-glycosylated proteins such as MUC5AC. Conversion of peroxidase substrate TMB (Tetramethylbenzidine Base) was quantified by reading at 450 nm. O.D. (optical density) readings were plotted against concentrations of compounds. Linear regression was used to derive the concentration at which O.D. was reduced by 50% (IC50) when compared to vehicle-treated cells.
# [6] = test system: murine chloride channel, mCLCA1; assay: Patch clamp chloride current, HEK293 cell expressing mCLCA1; format: cell-based; details: for Chloride Current: + ionomycin + Ca
# Method: A HEK293 cell transfected with a plasmid expressing a murine chloride channel, mCLCA1, was patch clamped and chloride current was measured over a range of voltages (V, left column) and the results are shown in Table 3 below. Each row lists currents invoked at a particular positive voltage in the absence (−) or presence (+) of ionomycin and calcium, and in the presence of an indicated concentration of diclofenac (μM). Substantial current was invoked by the addition of 2 μM ionomycin and 2 mM calcium-compare the first two columns-indicating activation of mCLCA1 by the ionomycin/calcium treatment. For example, at 100 mV of positive voltage, the chloride current was increased from 39 nA/pF to 105 nA/pF.
# NCI-H292/hCLCA1 cells = assay: AB/PAS staining of mucous glycoconjugates in NCI-H292/hCLCA1 cells; format: cell-based, human; details: NFA 100 μM, MFA 125 or 250 μM, talniflumate 12.5, 25 or 50 μM; vs untreated cells
# Method: For the determination of mucous glycoconjugate production, NCI-H292/ctl and NCI-H292/hCLCA1 (AAF 15) cells were cultured in 24-well plates for 3 days. Cells were then fixed with Formalin and mucous glycoconjugates were visualized by AB/PAS staining (Sigma). […] For chloride channel blockage studies, cells were cultured in the presence of niflumic acid (NFA) (Sigma) at 100 μM concentration, mefanamic acid (MFA) at 125 or 250 μM or talniflumate at 12.5, 25 or 50 μM, or media alone.
# For the determination of mucous glycoconjugate production, NCI-H292/hCLCA1 cells were cultured in 24-well plates for 3 days with at concentrations of 0 to 150 μM of the talniflumate enantiomers or media alone (control). Cells were then fixed with Formalin and mucous glycoconjugates were visualized by AB/PAS staining (Sigma). […] In this assay both enantiomers were seen to inhibit muco-glycoconjugate production at concentrations>40 μM.
structure (smiles),measurement,setting,value
"COC(=O)c1cccnc1Nc1cccc(C(F)(F)F)c1 [1 (MSI 2213), Niflumic acid methyl ester]",ELLA,"[1]; Table 2, mucin production",−
COc1ccc2cc([C@H](C)C(=O)O)ccc2c1 [Naproxen],Mucin production by activated Caco2 cells,activated Caco2 cells [2],ineffective
"O=C1OC(OC(=O)c2cccnc2Nc2cccc(C(F)(F)F)c2)c2ccccc21 (single isomer, unassigned; enantiomer 2) [enantiomer 2]",IC50,"[1]; NCI-H292/hCLCA1 cells, 0 through 150 μM, 48 hours, FIG. 26, read-out: IC50, inhibition of MUC5A/C secretion",40000 nM
"O=S(=O)(O)c1cc(N=C=S)ccc1C=Cc1ccc(N=C=S)cc1S(=O)(=O)O [DIDS, 4,4′-diisothiocyanostilbene-2,2′-disulfonic acid]",PAS positive staining mucin glycoconjugates,"activated Caco2 cells [3]; activated Caco2 cells, 100 μm for NFA and 300 μm for DIDS, vs untreated cells",significantly fewer positive staining mucin glycoconjugates
Cc1ccc(Cl)c(Nc2ccccc2C(=O)O)c1Cl [Meclofenamate],Mucin production by activated Caco2 cells,activated Caco2 cells [2],partially
Cc1c(Cl)cccc1Nc1ccccc1C(=O)CC1OC(=O)c2ccccc21 (stereo not shown) [Compound 3],Est. LD50 (Alamar Blue),H292 clone 15 cells [4],19 µM
same,IC50,H292 clone 15 cells [5],1200 nM
Cc1c(Cl)cccc1Nc1ccccc1C(=O)O [Tolfenamate],Mucin production by activated Caco2 cells,activated Caco2 cells [3]; FIG. 2,inhibited
Cc1cccc(Nc2ccccc2C(=O)CCc2ccccc2C(=O)O)c1C [Compound 6],Est. LD50 (Alamar Blue),H292 clone 15 cells [4],27 µM
same,IC50,H292 clone 15 cells [5],3000 nM
O=C(CC1OC(=O)c2ncccc21)c1cccnc1Nc1cccc(C(F)(F)F)c1 (stereo not shown) [Compound 1],Est. LD50 (Alamar Blue),H292 clone 15 cells [4],11 µM
same,IC50,H292 clone 15 cells [5],2000 nM
O=C(O)c1ccccc1CCC(=O)c1ccccc1Nc1cccc(C(F)(F)F)c1 [Compound 8],Est. LD50 (Alamar Blue),H292 clone 15 cells [4],30 µM
same,IC50,H292 clone 15 cells [5],10000 nM
O=C1OC(CC(=O)c2cccnc2Oc2cccc(Cl)c2)c2ccccc21 (stereo not shown) [Compound 11],Est. LD50 (Alamar Blue),H292 clone 15 cells [4],23 µM
same,IC50,H292 clone 15 cells [5],2000 nM
O=C1OC(CC(=O)c2cccnc2Oc2cccc(Br)c2)c2ccccc21 (stereo not shown) [Compound 14],Est. LD50 (Alamar Blue),H292 clone 15 cells [4],16 µM
same,IC50,H292 clone 15 cells [5],2300 nM
CS(=O)(=O)Nc1ccc([N+](=O)[O-])cc1Oc1ccccc1 [Nimesulide],Inhibition of MUC5A/C secretion / mucin production (figure legends),"[1]; hCLCA1 expressing H292 cells, 48 hours",inhibition of MUCSA/C secretion
CC1=C(CC(=O)O)c2cc(F)ccc2/C1=C\c1ccc([S+](C)[O-])cc1 (stereo not shown) [Sulindac],Mucin production by activated Caco2 cells,activated Caco2 cells [2],ineffective
O=C1OC(CC(=O)c2cccnc2Oc2ccccc2)c2ccccc21 (stereo not shown) [Compound 9],Est. LD50 (Alamar Blue),H292 clone 15 cells [4],43 µM
same,IC50,H292 clone 15 cells [5],5000 nM
"O=C1OC(OC(=O)c2cccnc2Nc2cccc(C(F)(F)F)c2)c2ccccc21 (single isomer, unassigned; enantiomer 1) [enantiomer 1]","IC50, inhibition of MUC5A/C secretion","[1]; NCI-H292/hCLCA1 cells, 0 through 150 μM, 48 hours, FIG. 26",not inhibitory
O=C(O)Cc1ccccc1Nc1c(Cl)cccc1Cl [diclofenac],Inhibition of chloride channel activity,[6]; diclofenac 5 μM to 50 μM,did not inhibit chloride channel activity
same,Chloride Current,"[6]; diclofenac 5 μM, 0 mV",20 nA/pF
same,Chloride Current,"[6]; diclofenac 5 μM, 20 mV",36 nA/pF
same,Chloride Current,"[6]; diclofenac 5 μM, 40 mV",53 nA/pF
same,Chloride Current,"[6]; diclofenac 5 μM, 60 mV",72 nA/pF
same,Chloride Current,"[6]; diclofenac 5 μM, 80 mV",92 nA/pF
same,Chloride Current,"[6]; diclofenac 5 μM, 100 mV",115 nA/pF
same,Chloride Current,"[6]; diclofenac 20 μM, 0 mV",20 nA/pF
same,Chloride Current,"[6]; diclofenac 20 μM, 20 mV",34 nA/pF
same,Chloride Current,"[6]; diclofenac 20 μM, 40 mV",51 nA/pF
same,Chloride Current,"[6]; diclofenac 20 μM, 60 mV",69 nA/pF
same,Chloride Current,"[6]; diclofenac 20 μM, 80 mV",88 nA/pF
same,Chloride Current,"[6]; diclofenac 20 μM, 100 mV",109 nA/pF
same,Chloride Current,"[6]; diclofenac 50 μM, 0 mV",19 nA/pF
same,Chloride Current,"[6]; diclofenac 50 μM, 20 mV",33 nA/pF
same,Chloride Current,"[6]; diclofenac 50 μM, 40 mV",48 nA/pF
same,Chloride Current,"[6]; diclofenac 50 μM, 60 mV",66 nA/pF
same,Chloride Current,"[6]; diclofenac 50 μM, 80 mV",85 nA/pF
same,Chloride Current,"[6]; diclofenac 50 μM, 100 mV",106 nA/pF
O=C(O)c1ccccc1Nc1cccc(C(F)(F)F)c1 [Flufenamate],Mucin production by activated Caco2 cells,activated Caco2 cells [2],inhibited
O=C(CC1OC(=O)c2ccccc21)c1ccccc1Sc1ccccc1Cl (stereo not shown) [Compound 15],Est. LD50 (Alamar Blue),H292 clone 15 cells [4],15 µM
same,IC50,H292 clone 15 cells [5],2500 nM
O=C1OC(CC(=O)c2cccnc2Oc2ccc(F)cc2F)c2ccccc21 (stereo not shown) [Compound 12],Est. LD50 (Alamar Blue),H292 clone 15 cells [4],22 µM
same,IC50,H292 clone 15 cells [5],1900 nM
O=C(O)c1ccccc1CCC(=O)c1cccnc1Oc1ccccc1 [Compound 10],Est. LD50 (Alamar Blue),H292 clone 15 cells [4],885 µM
same,IC50,H292 clone 15 cells [5],44000 nM
O=C1OC(CC(=O)c2cccnc2Oc2cccc(Cl)c2Cl)c2ccccc21 (stereo not shown) [Compound 13],Est. LD50 (Alamar Blue),H292 clone 15 cells [4],10 µM
same,IC50,H292 clone 15 cells [5],1000 nM
Cc1cccc(Nc2ccccc2C(=O)CC2OC(=O)c3ccccc32)c1C (stereo not shown) [Compound 5],Est. LD50 (Alamar Blue),H292 clone 15 cells [4],35 µM
same,IC50,H292 clone 15 cells [5],4000 nM
COC(=O)c1ccccc1/C=C/C(=O)c1cccnc1Nc1cccc(C(F)(F)F)c1 [Compound 2],Est. LD50 (Alamar Blue),H292 clone 15 cells [4],16 µM
same,IC50,H292 clone 15 cells [5],4000 nM
Cc1cccc(Nc2ccccc2C(=O)O)c1C [Mefenamate],PAS positive staining muco-glycoconjugates,NCI-H292/hCLCA1 cells,significantly fewer positive staining muco-glycoconjugates
same,Mucin production by activated Caco2 cells,activated Caco2 cells [2],partially
O=C(CC1OC(=O)c2ccccc21)c1ccccc1Nc1cccc(C(F)(F)F)c1 (stereo not shown) [Compound 7],Est. LD50 (Alamar Blue),H292 clone 15 cells [4],69 µM
same,IC50,H292 clone 15 cells [5],24000 nM
Cc1c(Cl)cccc1Nc1ccccc1C(=O)CCc1ccccc1C(=O)O [Compound 4],Est. LD50 (Alamar Blue),H292 clone 15 cells [4],27 µM
same,IC50,H292 clone 15 cells [5],1600 nM
